Experimental data: PMC11946789, “Two Amino Acid Substitutions Improve the Pharmacological Profile of the Snake Venom Peptide Mambalgin” (Toxins, 2025)
Bridges are numbered along the chain shown (N, C = ends). Where no end group is shown, it is not given here.

Test system: acetic acid-induced writhes
Test: Acetic acid-induced writhing pain test
Assay type: in vivo, male ICR mice
Conditions: for decrease in number of writhes: 90 min before i.p. 0.6% acetic acid, 15 min, n = 8, vs saline control (41 ± 8 writhes); for number of writhes (result in words): 0.01 and 0.1 mg/kg, 90 min prior to testing
Text: ASIC channels play a critical role in the perception of acid-induced pain [8, 38]. As effective inhibitors of ASIC1-containing channels, Mamb and Mamb-AL could serve as potential therapeutics for this type of pathology. To evaluate this hypothesis, we employed the acetic acid-induced writhing test as an in vivo model of acute pain. In this model, intraperitoneal administration of 0.6% acetic acid provokes a stereotypical behavior in mice characterized by abdominal contractions (acetic acid-induced writhes).
Figure 5 Analgesic effect of peptides Mamb and Mamb-AL in an acute pain model. Peptides were administered intramuscularly 90 min before testing. Their efficacy was assessed using the acetic acid-induced writhing test, where the number of writhes was counted after intraperitoneal administration of 0.6% acetic acid. Results are presented as mean ± SD (n = 8 for each group). Statistical analysis was performed using one-way ANOVA followed by Dunnett’s post hoc test. * p< 0.05, ** p< 0.01, *** p< 0.005, **** p< 0.001 indicate significant differences compared with the control group, and ns indicates no significant difference.
The number of writhes in the control group treated with saline was 41 ± 8. Administration of wild-type peptide at doses of 0.01 and 0.1 mg/kg decreased the number of writhes by approximately 29% and 27%, respectively.
Adult (8–10 weeks) male ICR mice (25–30 g, Animal Breeding Facility Branch of the Shemyakin–Ovchinnikov Institute of Bioorganic Chemistry, Russian Academy of Sciences, Pushchino, Russia) were housed in Type 3 standard polycarbonate cages (820 cm^2) with LIGNOCEL BK 8/15 bedding (JRS, Rosenberg, Germany) under controlled conditions (23 ± 2 °C, 12h light–dark cycle) with ad libitum access to food and water. Test substances were dissolved in saline and administered intramuscularly 90 min before testing. The visceral pain assay was performed as described by. Distinct groups (n = 8 for each group) of mice were administered with 0.6% acetic acid in saline intraperitoneally (i.p.). Writhing behavior was recorded for 15 min after the mice were placed in transparent glass cylinders. A blinded observer assessed the responses. No formal power analysis was performed prior to the experiments, as the effect size and variability of the peptide treatment were unknown. However, because the initial results were highly significant, no additional animals were used. No animals were excluded from the analysis. Peptides (Mamb and Mamb-AL) were compared with a saline control group using analysis of variance (ANOVA) with post hoc Dunnett’s test. Data are presented as mean ± standard deviation (SD).

Sequence	decrease in number of writhes (0.01 mg/kg intramuscular)	decrease in number of writhes (0.1 mg/kg intramuscular)	analgesic effect relative to wild-type Mamb (0.01 and 0.1 mg/kg intramuscular)	number of writhes (result in words)
LKCYQHGKVVTCHRDAKFCYHNTGLPFRNLKLILQGCSSSCSETENNKCCSTDRCNK (disulfide 3-19, 12-37, 41-49, 50-55 (inferred)) [Mamb-AL]	~ 41%	~ 34%	trend toward a stronger analgesic effect than the wild-type Mamb	significantly reduced the number of writhes
LKCFQHGKVVTCHRDMKFCYHNTGMPFRNLKLILQGCSSSCSETENNKCCSTDRCNK (disulfide 3-19, 12-37, 41-49, 50-55 (inferred)) [Mamb]	approximately 29%	~27%	–	significantly reduced the number of writhes
